In ChEMBL document CHEMBL4011641, “Prodrugs of Pyrazolo[3,4-d]pyrimidines: From Library Synthesis to Evaluation as Potential Anticancer Agents in an Orthotopic Glioblastoma Model” (J Med Chem, 2017):
Values after ≈ are worked out from the molar mass of the structure shown.

system: not listed separately; experiment: physchem; conditions: PAMPA
Description: Apparent permeability at 500 uM after 5 hrs by Blood-Brain Barrier-based PAMPA

Going from `CSc1nc(N(C(=O)OCCN2CCN(C)CC2)c2cccc(Br)c2)c2cnn(CC(C)c3ccccc3)c2n1` (stereo not drawn) to `CSc1nc(N(C(=O)OC(C)CN2CCN(C)CC2)c2cccc(Br)c2)c2cnn(CC(C)c3ccccc3)c2n1` (stereo not drawn), the Papp at 5 h, 500 µM rises from 18.9 nm/s to 23.9 nm/s.

Compared with `CN1CCN(CCOC(=O)N(c2ccccc2)c2ncnc3c2cnn3CC(Cl)c2ccc(Br)cc2)CC1` (stereo not drawn), `CSc1nc(N(C(=O)OCCN2CCN(C)CC2)c2cccc(Cl)c2)c2cnn(CCc3ccccc3)c2n1` is lower in Papp at 5 h, 500 µM: 69.7 nm/s for the first, 43 nm/s for the second.

Going from `CSc1nc(NCCc2ccccc2)c2cnn(CC(Cl)c3ccccc3)c2n1` (stereo not drawn) to `CSc1nc(Nc2cccc(Cl)c2)c2cnn(CCc3ccccc3)c2n1`, the Papp at 5 h, 500 µM falls from 61.7 nm/s to 14.8 nm/s.

system: not listed separately; experiment: Metabolic stability in human liver microsomes assessed as parent compound remaining at 50 uM after 1 hr in presence of NADPH regenerating system by UV/LC-MS analysis; format: ADME, microsome; conditions: read-out: Stability

Compared with `ClC(Cn1ncc2c(Nc3ccccc3)ncnc21)c1ccc(Br)cc1` (stereo not drawn), `ClC(Cn1ncc2c(NCc3ccccc3)ncnc21)c1ccccc1` (stereo not drawn) is lower in remaining at 1 h, 50 µM: 96.4% for the first, 78.3% for the second.

First: CSc1nc(NCCc2ccccc2)c2cnn(CC(Cl)c3ccccc3)c2n1 (stereo not drawn)
Second: CSc1nc(Nc2cccc(Cl)c2)c2cnn(CCc3ccccc3)c2n1
The remaining at 1 h, 50 µM of the first is lower: 96.2% for the first, 99% for the second.

system: not listed separately; experiment: cells; conditions: Homo sapiens, U-87 MG, 24 h
Description: Cytotoxicity against human U87 cells assessed as reduction in cell viability after 24 hrs by trypan blue assay

`CSc1nc(N(C(=O)OCCN2CCN(C)CC2)c2cccc(Br)c2)c2cnn(CC(C)c3ccccc3)c2n1` (stereo not drawn) and `CSc1nc(N(C(=O)OC(C)CN2CCN(C)CC2)c2cccc(Br)c2)c2cnn(CC(C)c3ccccc3)c2n1` (stereo not drawn) are within 1.5-fold of each other in IC50: 7.3 µM for the first, 7.4 µM for the second.

Going from `ClC(Cn1ncc2c(Nc3ccccc3)ncnc21)c1ccc(Br)cc1` (stereo not drawn) to `ClC(Cn1ncc2c(NCc3ccccc3)ncnc21)c1ccccc1` (stereo not drawn), the IC50 falls from 25.3 µM to 14.6 µM (1.7-fold).

In the case of `CN1CCN(CCOC(=O)N(c2ccccc2)c2ncnc3c2cnn3CC(Cl)c2ccc(Br)cc2)CC1` (stereo not drawn), the IC50 is reported as 8.2 µM.

system: not listed separately; experiment: Metabolic stability in mouse liver microsomes assessed as unmetabolized compound remaining at 50 uM after 1 hr in presence of NADPH regenerating system by UV/LC-MS analysis; format: ADME, microsome; conditions: read-out: Stability

Work on `CSc1nc(N(C(=O)OCCN2CCN(C)CC2)c2cccc(Br)c2)c2cnn(CC(C)c3ccccc3)c2n1` (stereo not drawn) yielded a remaining at 1 h, 50 µM of 93.3%.

system: not listed separately; experiment: cells; conditions: Homo sapiens, U-87 MG, 48 h
Description: Cytotoxicity against human U87 cells assessed as reduction in cell viability after 48 hrs by trypan blue assay

Compared with `CSc1nc(N(C(=O)OCCN2CCN(C)CC2)c2cccc(Br)c2)c2cnn(CC(C)c3ccccc3)c2n1` (stereo not drawn), `CSc1nc(N(C(=O)OC(C)CN2CCN(C)CC2)c2cccc(Br)c2)c2cnn(CC(C)c3ccccc3)c2n1` (stereo not drawn) is 2-fold higher in IC50: 2.2 µM for the first, 4.5 µM for the second.

Going from `ClC(Cn1ncc2c(Nc3ccccc3)ncnc21)c1ccc(Br)cc1` (stereo not drawn) to `ClC(Cn1ncc2c(NCc3ccccc3)ncnc21)c1ccccc1` (stereo not drawn), the IC50 falls from 17.3 µM to 4.9 µM (3.5-fold).

For `CN1CCN(CCOC(=O)N(c2ccccc2)c2ncnc3c2cnn3CC(Cl)c2ccc(Br)cc2)CC1` (stereo not drawn), the IC50 was 5.1 µM.

system: not listed separately; experiment: Prodrug activation in human U87 cells assessed as N-(3-bromophenyl)-6-(methylthio)-1-(2-phenylpropyl)-1H-pyrazolo[3,4-d]pyrimidin-4-amine formation at 20 uM up to 25 hrs by UV/LC-MS analysis; format: cell-based; conditions: u-87mg atcc

With `CSc1nc(N(C(=O)OCCN2CCN(C)CC2)c2cccc(Br)c2)c2cnn(CC(C)c3ccccc3)c2n1` (stereo not drawn) the Drug metabolism was “Metabolite_Detected”.
In the case of `CSc1nc(N(C(=O)OC(C)CN2CCN(C)CC2)c2cccc(Br)c2)c2cnn(CC(C)c3ccccc3)c2n1` (stereo not drawn), the Drug metabolism is reported as “Metabolite_Detected”.

system: not listed separately; experiment: cells; conditions: Homo sapiens, U-87 MG, 72 h
Description: Cytotoxicity against human U87 cells assessed as reduction in cell viability after 72 hrs by trypan blue assay

`CSc1nc(N(C(=O)OCCN2CCN(C)CC2)c2cccc(Br)c2)c2cnn(CC(C)c3ccccc3)c2n1` (stereo not drawn) and `CSc1nc(N(C(=O)OC(C)CN2CCN(C)CC2)c2cccc(Br)c2)c2cnn(CC(C)c3ccccc3)c2n1` (stereo not drawn) are within 1.5-fold of each other in IC50: 1.57 µM for the first, 1.8 µM for the second.

Going from `ClC(Cn1ncc2c(Nc3ccccc3)ncnc21)c1ccc(Br)cc1` (stereo not drawn) to `ClC(Cn1ncc2c(NCc3ccccc3)ncnc21)c1ccccc1` (stereo not drawn), the IC50 falls from 14 µM to 2.9 µM (4.8-fold).

Molecule `CN1CCN(CCOC(=O)N(c2ccccc2)c2ncnc3c2cnn3CC(Cl)c2ccc(Br)cc2)CC1` (stereo not drawn) has an IC50 of 2 µM.

target: Proto-oncogene tyrosine-protein kinase Src (Homo sapiens, UniProt P12931); experiment: biochemical; conditions: not given
Sequence (P12931 2-536 limits assumed): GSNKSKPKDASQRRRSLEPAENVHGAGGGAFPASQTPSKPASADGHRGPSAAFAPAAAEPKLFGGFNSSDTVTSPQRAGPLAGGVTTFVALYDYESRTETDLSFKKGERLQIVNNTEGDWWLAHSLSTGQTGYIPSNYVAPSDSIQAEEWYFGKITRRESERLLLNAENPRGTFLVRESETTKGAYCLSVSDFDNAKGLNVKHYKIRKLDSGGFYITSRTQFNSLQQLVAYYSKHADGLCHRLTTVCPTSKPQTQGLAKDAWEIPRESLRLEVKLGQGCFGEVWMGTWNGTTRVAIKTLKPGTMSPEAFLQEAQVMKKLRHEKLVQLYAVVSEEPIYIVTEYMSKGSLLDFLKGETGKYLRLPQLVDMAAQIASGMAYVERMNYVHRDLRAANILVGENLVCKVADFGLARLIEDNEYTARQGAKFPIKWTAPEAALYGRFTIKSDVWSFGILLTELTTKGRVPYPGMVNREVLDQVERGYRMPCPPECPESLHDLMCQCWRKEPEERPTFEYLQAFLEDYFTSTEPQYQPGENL

`CSc1nc(N(C(=O)OCCN2CCN(C)CC2)c2cccc(Br)c2)c2cnn(CC(C)c3ccccc3)c2n1` (stereo not drawn) and `CSc1nc(N(C(=O)OC(C)CN2CCN(C)CC2)c2cccc(Br)c2)c2cnn(CC(C)c3ccccc3)c2n1` (stereo not drawn) cannot be ordered by Ki: > 100 µM for the first, > 100 µM for the second.

system: not listed separately; experiment: physchem; conditions: PAMPA; remark: another data set of the same source
Description: Apparent permeability at 500 uM after 5 hrs by Gastro-intestinal-based PAMPA

Compared with `CN1CCN(CCOC(=O)N(c2ccccc2)c2ncnc3c2cnn3CC(Cl)c2ccc(Br)cc2)CC1` (stereo not drawn), `CSc1nc(N(C(=O)OCCN2CCN(C)CC2)c2cccc(Cl)c2)c2cnn(CCc3ccccc3)c2n1` is lower in Papp at 5 h, 500 µM: 99.1 nm/s for the first, 46.9 nm/s for the second.

First: CSc1nc(N(C(=O)OC(C)CN2CCN(C)CC2)c2cccc(Br)c2)c2cnn(CC(C)c3ccccc3)c2n1 (stereo not drawn)
Second: CSc1nc(NCCc2ccccc2)c2cnn(CC(Cl)c3ccccc3)c2n1 (stereo not drawn)
The Papp at 5 h, 500 µM of the first is lower: 21.5 nm/s for the first, 74 nm/s for the second.

system: not listed separately; experiment: Half life in PBS buffer at 100 uM at pH 7.4 by UV/LC-MS analysis; format: physicochemical; conditions: not given

Going from `CSc1nc(N(C(=O)OC(CN2CCN(C)CC2)c2ccccc2)c2cccc(Br)c2)c2cnn(CC(C)c3ccccc3)c2n1` (stereo not drawn) to `CSc1nc(N(C(=O)OC(C)CN2CCN(C)CC2)c2cccc(Br)c2)c2cnn(CC(C)c3ccccc3)c2n1` (stereo not drawn), the half-life at 100 µM rises from < 0.25 h to > 48 h.

Going from `CCCCN(C(=O)OCCN1CCN(C)CC1)c1nc(SCC)nc2c1cnn2CC(Cl)c1ccccc1` (stereo not drawn) to `CSc1nc(N(C(=O)OCCN2CCN(C)CC2)c2cccc(Br)c2)c2cnn(CC(C)c3ccccc3)c2n1` (stereo not drawn), the half-life at 100 µM rises from 1 h to > 48 h.

`CN1CCN(CCOC(=O)N(c2ccccc2)c2ncnc3c2cnn3CC(Cl)c2ccc(Br)cc2)CC1` (stereo not drawn) and `CSc1nc(N(C(=O)OCCN2CCN(C)CC2)c2cccc(Cl)c2)c2cnn(CCc3ccccc3)c2n1` cannot be ordered by half-life at 100 µM: > 48 h for the first, > 48 h for the second.

system: not listed separately; experiment: Drug uptake in cytoplasm of human U87 cells at 20 uM after 7 hrs by UV/LC-MS analysis; format: ADME; conditions: not given

In the case of `CSc1nc(N(C(=O)OC(C)CN2CCN(C)CC2)c2cccc(Br)c2)c2cnn(CC(C)c3ccccc3)c2n1` (stereo not drawn), the Drug uptake is reported as “Active”.

system: not listed separately; experiment: Drug uptake in cytoplasm of human U87 cells at 20 uM after 2 hrs by UV/LC-MS analysis; format: ADME; conditions: not given

With `CSc1nc(N(C(=O)OCCN2CCN(C)CC2)c2cccc(Br)c2)c2cnn(CC(C)c3ccccc3)c2n1` (stereo not drawn) the Drug uptake was “Active”.

system: not listed separately; experiment: Half life in human plasma by UV/LC-MS analysis; format: ADME, cell-free; conditions: not given

Compared with `CCCCN(C(=O)OCCN1CCN(C)CC1)c1nc(SCC)nc2c1cnn2CC(Cl)c1ccccc1` (stereo not drawn), `CN1CCN(CCOC(=O)N(c2ccccc2)c2ncnc3c2cnn3CC(Cl)c2ccc(Br)cc2)CC1` (stereo not drawn) is 12-fold higher in half-life: 0.46 h for the first, 5.68 h for the second.

With `CSc1nc(N(C(=O)OCCN2CCN(C)CC2)c2cccc(Cl)c2)c2cnn(CCc3ccccc3)c2n1` the half-life was 3.13 h.

system: not listed separately; experiment: Drug uptake in cytoplasm of human U87 cells at 20 uM after 5 hrs by UV/LC-MS analysis; format: ADME; conditions: not given

In the case of `CSc1nc(N(C(=O)OCCN2CCN(C)CC2)c2cccc(Br)c2)c2cnn(CC(C)c3ccccc3)c2n1` (stereo not drawn), the Drug uptake is reported as “Active”.

system: not listed separately; experiment: Half life in methanol at 100 uM by UV/LC-MS analysis; format: physicochemical; conditions: not given

First: CSc1nc(N(C(=O)OC(CN2CCN(C)CC2)c2ccccc2)c2cccc(Br)c2)c2cnn(CC(C)c3ccccc3)c2n1 (stereo not drawn)
Second: CSc1nc(N(C(=O)OC(C)CN2CCN(C)CC2)c2cccc(Br)c2)c2cnn(CC(C)c3ccccc3)c2n1 (stereo not drawn)
The half-life at 100 µM of the first is lower: < 0.25 h for the first, > 48 h for the second.

Going from `CCCCN(C(=O)OCCN1CCN(C)CC1)c1nc(SCC)nc2c1cnn2CC(Cl)c1ccccc1` (stereo not drawn) to `CSc1nc(N(C(=O)OCCN2CCN(C)CC2)c2cccc(Br)c2)c2cnn(CC(C)c3ccccc3)c2n1` (stereo not drawn), the half-life at 100 µM rises from 2 h to > 48 h.

`CN1CCN(CCOC(=O)N(c2ccccc2)c2ncnc3c2cnn3CC(Cl)c2ccc(Br)cc2)CC1` (stereo not drawn) and `CSc1nc(N(C(=O)OCCN2CCN(C)CC2)c2cccc(Cl)c2)c2cnn(CCc3ccccc3)c2n1` cannot be ordered by half-life at 100 µM: > 48 h for the first, > 48 h for the second.

system: not given; experiment: not given; conditions: pampa, 5 h, 500 µM

For `CSc1nc(Nc2cccc(Cl)c2)c2cnn(CCc3ccccc3)c2n1`, the Papp was 2.5 nm/s.

target: Tyrosine-protein kinase ABL1 (Homo sapiens, UniProt P00519); experiment: not given; conditions: not given
Sequence (P00519 whole entry): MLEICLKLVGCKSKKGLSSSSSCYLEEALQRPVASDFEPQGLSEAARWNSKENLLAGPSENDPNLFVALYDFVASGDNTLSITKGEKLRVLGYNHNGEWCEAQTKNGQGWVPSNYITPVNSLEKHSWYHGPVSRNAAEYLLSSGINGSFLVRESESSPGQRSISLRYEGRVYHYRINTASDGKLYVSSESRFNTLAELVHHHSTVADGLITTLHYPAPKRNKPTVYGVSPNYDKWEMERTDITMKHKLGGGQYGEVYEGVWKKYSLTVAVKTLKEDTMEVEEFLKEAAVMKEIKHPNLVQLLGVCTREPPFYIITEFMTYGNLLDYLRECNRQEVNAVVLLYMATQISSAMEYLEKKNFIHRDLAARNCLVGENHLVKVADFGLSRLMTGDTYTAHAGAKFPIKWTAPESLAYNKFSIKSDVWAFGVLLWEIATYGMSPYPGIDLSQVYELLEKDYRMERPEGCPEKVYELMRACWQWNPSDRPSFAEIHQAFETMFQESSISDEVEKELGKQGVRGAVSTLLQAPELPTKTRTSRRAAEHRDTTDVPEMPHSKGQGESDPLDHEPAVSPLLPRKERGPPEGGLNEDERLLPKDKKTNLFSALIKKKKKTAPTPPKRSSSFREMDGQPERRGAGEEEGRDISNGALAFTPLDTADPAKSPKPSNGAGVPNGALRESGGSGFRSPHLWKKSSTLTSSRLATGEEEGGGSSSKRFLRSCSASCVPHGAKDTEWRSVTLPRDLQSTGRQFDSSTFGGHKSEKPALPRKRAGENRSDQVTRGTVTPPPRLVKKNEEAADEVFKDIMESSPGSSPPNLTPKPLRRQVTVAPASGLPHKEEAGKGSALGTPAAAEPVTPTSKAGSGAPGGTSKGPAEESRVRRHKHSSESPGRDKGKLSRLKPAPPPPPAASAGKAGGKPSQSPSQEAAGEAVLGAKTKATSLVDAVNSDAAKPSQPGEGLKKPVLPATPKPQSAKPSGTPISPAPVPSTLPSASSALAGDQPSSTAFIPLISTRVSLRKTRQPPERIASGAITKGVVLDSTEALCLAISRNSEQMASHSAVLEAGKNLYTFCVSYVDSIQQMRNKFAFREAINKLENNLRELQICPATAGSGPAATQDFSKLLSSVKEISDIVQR

`CSc1nc(N(C(=O)OCCN2CCN(C)CC2)c2cccc(Br)c2)c2cnn(CC(C)c3ccccc3)c2n1` (stereo not drawn) and `CSc1nc(N(C(=O)OC(C)CN2CCN(C)CC2)c2cccc(Br)c2)c2cnn(CC(C)c3ccccc3)c2n1` (stereo not drawn) cannot be ordered by Ki: > 100 µM for the first, > 100 µM for the second.

system: not listed separately; experiment: physchem; conditions: aqueous
Description: Aqueous solubility of compound at 1 mg after 24 hrs by UV/LC-MS analysis

Compared with `CSc1nc(N(C(=O)OCCN2CCN(C)CC2)c2cccc(Br)c2)c2cnn(CC(C)c3ccccc3)c2n1` (stereo not drawn), `CSc1nc(N(C(=O)OC(C)CN2CCN(C)CC2)c2cccc(Br)c2)c2cnn(CC(C)c3ccccc3)c2n1` (stereo not drawn) is 1.9-fold lower in solubility at 24 h: 6.47 µg/mL (≈ 10.4 µM) for the first, 3.4 µg/mL (≈ 5.32 µM) for the second.

Going from `ClC(Cn1ncc2c(Nc3ccccc3)ncnc21)c1ccc(Br)cc1` (stereo not drawn) to `ClC(Cn1ncc2c(NCc3ccccc3)ncnc21)c1ccccc1` (stereo not drawn), the solubility at 24 h rises from 0.06 µg/mL (≈ 0.14 µM) to 0.7 µg/mL (≈ 1.92 µM) (12-fold).

Going from `CN1CCN(CCOC(=O)N(c2ccccc2)c2ncnc3c2cnn3CC(Cl)c2ccc(Br)cc2)CC1` (stereo not drawn) to `CSc1nc(N(C(=O)OCCN2CCN(C)CC2)c2cccc(Cl)c2)c2cnn(CCc3ccccc3)c2n1`, the solubility at 24 h falls from 41.6 µg/mL (≈ 69.4 µM) to 6.32 µg/mL (≈ 11.2 µM) (6.6-fold).

Work on `CSc1nc(NCCc2ccccc2)c2cnn(CC(Cl)c3ccccc3)c2n1` (stereo not drawn) yielded a solubility at 24 h of 0.07 µg/mL (≈ 0.165 µM).

system: not listed separately; experiment: Half life in mouse plasma by UV/LC-MS analysis; format: ADME, cell-free; conditions: not given

In the case of `CSc1nc(N(C(=O)OCCN2CCN(C)CC2)c2cccc(Br)c2)c2cnn(CC(C)c3ccccc3)c2n1` (stereo not drawn), the half-life is reported as 2 h.
